Biological target: T1, human vasopressin V1a receptor subtype (Homo sapiens, UniProt P37288)
T1 construct: host or cells: CHO cells, stably transfected (pZeoSV vector for the Thibonnier line)
Assay: Vasopressin binding in CHO cell membranes expressing human vasopressin V1a subtype receptors ([3H]Manning ligand radioligand binding)
Settings: 100 nM
Procedure: Vasopressin Binding in Chinese Hamster Ovary Cell Membranes Expressing Human Vasopressin V1a Subtype Receptors
The trypsin is removed by aspiration and the cells dislodged by tapping. Cell Culture medium (e.g. 30 mL for 1:30 split) is immediately added and mixed well to inactivate trypsin. 1 mL of detached cells is added to new culture flasks containing fresh cell culture medium (e.g., into 25 mL per T-150 flask), and mixed gently. The cells are incubated at 37° C. in 5% CO2. The medium is changed at 3 to 4 days interval (or as appropriate). […] All steps are done under sterile conditions.
The cells are washed twice gently with Hank's Balanced Salt solution (e.g,. use 10 mL per T-150 flask). […] The contents are transferred to centrifuge tubes (50 mL) kept in an ice bath. All subsequent steps are done at 4° C. The tubes are centrifuged at 300×g for 15 min (1380 rpm on SORVAL, Model RT6000D, using the rotor for 50 mL tubes). The supernatant is discarded and the cells suspended in homogenizing buffer(10 mM Tris-HCl containing 0.25 M sucrose and 1 mM EDTA, pH 7.4) ensuring that the volume of the buffer is about ten times the volume of the cell pellet. The cells are pooled into a centrifuge tube (50 mL) and homogenized with Polytron at setting 6 for 10 sec. The homogenate is transferred into a Potter-Elvjehm homogenizer and homogenized with 3 strokes. The homogenate is centrifuged at 1500×g for 10 min at 4° C. (3100 rpm using SORVAL, model RT6000D, using the rotor for 50 mL tubes). The pellet is discarded. The supernatant is centrifuged at 100,000×g for 60 min. at 4° C. (Beckman L8-80M ultracentrifuge; spin at 37,500 rpm with rotor type 70 Ti for 50 mL tubes; 38,000 rpm with type 80Ti for 15 mL tubes; or 35,800 rpm with rotor type 45Ti). The supernantant is discarded and the pellet suspended in 3 to 4 mL of Tris buffer (50 mM TRIS-HCl, pH 7.4). The protein content is estimated by the Bradford or Lowry method. The volume of the membrane suspension is adjusted with the membrane buffer (50 mM Tris-HCl containing 0.1% BSA and 0.1 mM PMSF) to give 3.0 mg/mL (or as appropriate) of protein. The membranes are aliquoted and stored at −70° C.
In wells of a 96-well format microtiter plate, is added 90, 110 or 130 μL (to make up a final volume of 200 μL) of assay buffer containing 50 mM of Tris-HCl (pH 7.4), BSA (heat inactivated, protease-free), […], 1 mg % aprotinin, 1 mg % leupeptin, 2 mg % 1,10-phenanthroline, 10 mg % trypsin inhibitor, and 0.1 mM PMSF. The inhibitors are added on the day of the experiment. The components are mixed at room temperature, and then kept in ice bath following adjustment of the pH to 7.4. […] 20 μL of 50% DMSO is added for Manning and other peptide ligands and the assay buffer volume is adjusted accordingly. To each well is added 50 μL of frozen membrane suspension thawed immediately prior to use and diluted in the assay buffer to the required concentration (equivalent to 25 to 50 μg of protein/well as needed). 20 μL of 8 nM [^3H]Manning ligand in the assay buffer, prepared just before use, is added, and incubated at room temperature for 60 min. shaking the plate on a mechanical shaker for the first 15 min. The incubation is stopped by rapid filtration of the plate contents followed by wash with ice-cold buffer (50 mM Tris-HCl, pH 7.4) using a cell harvester (Tomtek and Printed filtermat-B filter paper). The filter paper is thoroughly dried (7–12 min. in a microwave oven) and impregnated with MeltiLex B/H melt-on scintillation wax sheets and the radioactivity counted in a betaplate scintillation counter.
Binding data is either reported as percent inhibition at a certain concentration or if an IC50 was calculated, as a nanomolar concentration.

T1 sequence (P37288 whole entry): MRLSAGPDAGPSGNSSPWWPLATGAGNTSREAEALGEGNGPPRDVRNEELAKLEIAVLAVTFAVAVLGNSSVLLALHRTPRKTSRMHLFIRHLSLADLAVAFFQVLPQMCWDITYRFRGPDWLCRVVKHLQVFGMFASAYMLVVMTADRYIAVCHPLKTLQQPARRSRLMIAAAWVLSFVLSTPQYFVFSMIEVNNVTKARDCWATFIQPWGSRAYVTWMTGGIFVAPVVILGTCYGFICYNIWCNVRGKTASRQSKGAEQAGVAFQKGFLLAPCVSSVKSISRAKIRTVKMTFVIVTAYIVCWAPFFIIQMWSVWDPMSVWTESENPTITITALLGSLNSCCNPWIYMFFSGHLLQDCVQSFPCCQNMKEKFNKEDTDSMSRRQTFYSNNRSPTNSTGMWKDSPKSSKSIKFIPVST

| inhibition at 0.1 µM [%] | Structure (SMILES) | V1a % inhibition @ 100 nM [%] |
| --- | --- | --- |
| 19 | COc1cccc(-c2cc(OC)c(C(=O)N3Cc4ccc(C(=O)N(C)CCc5ccncc5)n4Cc4ccccc43)cc2Cl)c1 [Example 133, 10-[(6-Chloro-3,3′-dimethoxy-[1,1′-biphenyl]-4-yl)carbonyl]-N-methyl-N-[2-(4-pyridinyl)ethyl]-10,11-dihydro-5H-pyrrolo[2,1-c][1,4]benzodiazepine-3-carboxamide] | – |
| 68 | COc1cccc(-c2ccc(C(=O)N3Cc4ccc(C(=O)N(C)CCc5ccncc5)n4Cc4ccccc43)cc2OC)c1 [Example 135, 10-[(2,3′-Dimethoxy-[1,1′-biphenyl]-4-yl)carbonyl]-N-methyl-N-[2-(4-pyridinyl)ethyl]-10,11-dihydro-5H-pyrrolo[2,1-c][1,4]benzodiazepine-3-carboxamide] | – |
| 9 | COc1ccccc1-c1ccc(C(=O)N2Cc3ccc(C(=O)NCCc4ccccn4)n3Cc3ccccc32)cc1OC [Example 58, 10-[(2,2′-Dimethoxy-[1,1′-biphenyl]-4-yl)carbonyl]-N-[2-(2-pyridinyl)ethyl]-10,11-dihydro-5H-pyrrolo[2,1-c][1,4]benzodiazepine-3-carboxamide] | – |
| 83 | COc1cc(C(=O)N2Cc3ccc(C(=O)N(C)CCc4ccncc4)n3Cc3ccccc32)ccc1-c1ccccc1C [Example 131, 10-[(2-Methoxy-2′-methyl-[1,1′-biphenyl]-4-yl)carbonyl]-N-methyl-N-[2-(4-pyridinyl)ethyl]-10,11-dihydro-5H-pyrrolo[2,1-c][1,4]benzodiazepine-3-carboxamide] | – |
| -3 | COc1cc(-c2ccccc2C)c(Cl)cc1C(=O)N1Cc2ccc(C(=O)N3CCCCC3c3cccnc3)n2Cc2ccccc21 (centres unmarked) [Example 140, {10-[(6-Chloro-3-methoxy-2′-methyl-[1,1′-biphenyl]-4-yl)carbonyl]-10,11-dihydro-5H-pyrrolo[2,1-c][1,4]benzodiazepin-3-yl}[2-(3-pyridinyl)-1-piperidinyl]methanone] | – |
| 11 | COc1cc(C(=O)N2Cc3ccc(C(=O)N(C)CCc4ccccn4)n3Cc3ccccc32)ccc1-n1c(C)ccc1C [Example 144, 10-[4-(2,5-Dimethyl-1H-pyrrol-1-yl)-3-methoxybenzoyl]-N-methyl-N-[2-(pyridin-2-yl)ethyl]-10,11-dihydro-5H-pyrrolo[2,1-c][1,4]benzodiazepine-3-carboxamide] | – |
| 26 | COc1cc(-c2ccccc2C)c(Cl)cc1C(=O)N1Cc2ccc(C(=O)N(C)CCc3ccncc3)n2Cc2ccccc21 [Example 132, 10-[(6-Chloro-3-methoxy-2′-methyl-[1,1′-biphenyl]-4-yl)carbonyl]-N-methyl-N-[2-(4-pyridinyl)ethyl]-10,11-dihydro-5H-pyrrolo[2,1-c][1,4]benzodiazepine-3-carboxamide] | – |
| 17 | COc1cc(C(=O)N2Cc3ccc(C(=O)N4CCN(c5ccncc5)CC4)n3Cc3ccccc32)ccc1-c1cccc2ccccc12 [Example 121, {10-[3-Methoxy-4-(naphthalen-1-yl)benzoyl]-10,11-dihydro-5H-pyrrolo[2,1-c][1,4]benzodiazepin-3-yl}[4-(4-pyridinyl)-1-piperazinyl]methanone] | – |
| 12 | COc1cc(-c2ccccc2C)c(Cl)cc1C(=O)N1Cc2ccc(C(=O)N(C)Cc3cccnc3)n2Cc2ccccc21 [Example 107, 10-[(6-Chloro-3-methoxy-2′-methyl-[1,1′-biphenyl]-4-yl)carbonyl]-N-methyl-N-(3-pyridinylmethyl)-10,11-dihydro-5H-pyrrolo[2,1-c][1,4]benzodiazepine-3-carboxamide] | – |
| 17 | COc1ccccc1-c1ccc(C(=O)N2Cc3ccc(C(=O)N(C)CCc4ccncc4)n3Cc3ccccc32)cc1OC [Example 125, 10-[(2,2′-Dimethoxy-[1,1′-biphenyl]-4-yl)carbonyl]-N-methyl-N-[2-(4-pyridinyl)ethyl]-10,11-dihydro-5H-pyrrolo[2,1-c][1,4]benzodiazepine-3-carboxamide] | – |
| 56 | Cc1ccccc1-c1ccc(C(=O)N2Cc3ccc(C(=O)N4CCN(c5ccncc5)CC4)n3Cc3ccccc32)cc1C [Example 114, {10-[(2,2′-Dimethyl-[1,1′-biphenyl]-4-yl)carbonyl]-10,11-dihydro-5H-pyrrolo[2,1-c][1,4]benzodiazepin-3-yl}[4-(4-pyridinyl)-1-piperazinyl]methanone] | – |

The next lines start with the compound.

| Structure (SMILES) | inhibition at 0.1 µM [%] | V1a % inhibition @ 100 nM [%] |
| --- | --- | --- |
| COc1cc(-c2ccccc2C)c(Cl)cc1C(=O)N1Cc2ccc(C(=O)NCCc3ccccn3)n2Cc2ccccc21 [Example 55, 10-[(6-Chloro-3-methoxy-2′-methyl-[1,1′-biphenyl]-4-yl)carbonyl]-N-[2-(2-pyridinyl)ethyl]-10,11-dihydro-5H-pyrrolo[2,1-c][1,4]benzodiazepine-3-carboxamide] | -7 | – |
| COc1cccc(-c2cc(OC)c(C(=O)N3Cc4ccc(C(=O)NCc5ccccn5)n4Cc4ccccc43)cc2Cl)c1 [Example 30, 10-[(6-Chloro-3,3′-dimethoxy-[1,1′-biphenyl]-4-yl)carbonyl]-N-(2-pyridinylmethyl)-10,11-dihydro-5H-pyrrolo[2,1-c][1,4]benzodiazepine-3-carboxamide] | -7 | – |
| COc1cc(C(=O)N2Cc3ccc(C(=O)N4CCN(c5ccccn5)CC4)n3Cc3ccccc32)ccc1-c1cccc2ccccc12 [Example 83] | – | 9 |
| COc1cccc(-c2ccc(C(=O)N3Cc4ccc(C(=O)NCc5cccnc5)n4Cc4ccccc43)cc2OC)c1 [Example 46, 10-[(2,3′-Dimethoxy-[1,1′-biphenyl]-4-yl)carbonyl]-N-(3-pyridinylmethyl)-10,11-dihydro-5H-pyrrolo[2,1-c][1,4]benzodiazepine-3-carboxamide] | 7 | – |
| COc1cc(C(=O)N2Cc3ccc(C(=O)NCCc4ccccn4)n3Cc3ccccc32)ccc1-c1cccc2ccccc12 [Example 57, 10-[3-Methoxy-4-(naphthalen-1-yl)benzoyl]-N-[2-(2-pyridinyl)ethyl]-10,11-dihydro-5H-pyrrolo[2,1-c][1,4]benzodiazepine-3-carboxamide] | 2 | – |
| COc1ccccc1-c1ccc(C(=O)N2Cc3ccc(C(=O)NCc4ccccn4)n3Cc3ccccc32)cc1 [Example 26, 10-[(2′-Methoxy-[1,1′-biphenyl]-4-yl)carbonyl]-N-(2-pyridinylmethyl)-10,11-dihydro-5H-pyrrolo[2,1-c][1,4]benzodiazepine-3-carboxamide] | 17 | – |
| O=C(NCc1ccccn1)c1ccc2n1Cc1ccccc1N(C(=O)c1ccc(-c3cccc4ccccc34)cc1Cl)C2 [Example 34, 10-[2-Chloro-4-(naphthalen-1-yl)benzoyl]-N-(2-pyridinylmethyl)-10,11-dihydro-5H-pyrrolo[2,1-c][1,4]benzodiazepine-3-carboxamide] | 5 | – |
| Cc1ccccc1-c1ccc(C(=O)N2Cc3ccc(C(=O)NCCc4ccccn4)n3Cc3ccccc32)cc1 [Example 53, 10-[(2′-Methyl-[1,1′-biphenyl]-4-yl)carbonyl]-N-[2-(2-pyridinyl)ethyl]-10,11-dihydro-5H-pyrrolo[2,1-c][1,4]benzodiazepine-3-carboxamide] | 11 | – |
| Cc1cc(C(=O)N2Cc3ccc(C(=O)NCCc4ccccn4)n3Cc3ccccc32)ccc1-c1ccccc1C(F)(F)F [Example 61, 10-{[2-Methyl-2′-trifluoromethyl=[1,1′-biphenyl]-4-yl]carbonyl}-N-[2-(2-pyridinyl)ethyl]-10,11-dihydro-5H-pyrrolo[2,1-c][1,4]benzodiazepine-3-carboxamide] | – | 6 |

— patent publication US7064120B2, “Tricyclic pyridyl carboxamides and derivatives thereof tocolytic oxytocin receptor antagonists” (Wyeth, priority 2001, dated 2006)
